According to article PMC11362529, “Exploring the neuroprotective potential of Nrf2-pathway activators against annonacin toxicity” (Scientific Reports, 2024):

Columns and labels:
Assay type in all cases: cell-based, human
[1] = system: Nrf2-knockdown LUHMES cells; test: Cell viability in Nrf2-knockdown cells exposed to annonacin (calcein); details: Nrf2 siRNA, compound + 20 nM annonacin, 48 h
Experimental: The calcein AM green dye (Thermo Fisher Scientific) was diluted in DMSO to obtain a 1 mM stock solution. The stock solution was further diluted in HBSS (Hanks' balanced salt solution), immediately before incubation, to achieve a final working concentration of 1 μM in the well. The medium was removed, the cells were washed once with warm HBSS, and 200 µl of calcein working solution was added to each well. For background correction, 200 µl of calcein working solution was added to a well without cells (background control). After 30 min of incubation at 37 °C, the calcein solution was removed and the cells were washed once with HBSS. Cells were lysed in a 200 µl volume of 1% Triton™ X-100 in PBS (phosphate buffered saline) and the lysate transferred to a 96‐well black plate for the readout. The fluorescence signal was measured on a FLUOstar® Omega plate reader (BMG LabTech, Ortenberg, Germany) at λ Ex/Em = 485/530 nm and data was analyzed with the MARS data analysis software (BMG LabTech). For background correction, we subtracted the background control signal from the measured values of all experimental conditions. Data were expressed as percentage of viability relative to the control (DMSO-treated) condition.
LUHMES cells seeded on PLO/FN coated 48-well microplates were left to differentiate for 5 days, before being transfected with 25 nM of NRF2-targeting (gene ID 4780) or negative control siRNA (siTOOLs Biotech, Planegg, Germany), in Opti-MEM + GlutaMax medium (Thermo Fisher Scientific) with 0.4% of lipofectamine RNAiMax. After 24 h, the medium was removed and replaced with glucose-reduced medium for the pharmacological treatments, similar as described in the previous sections. Cell viability was determined by calcein assay, after 48 h of treatment, as explained before.

[2] = system: LUHMES cells; test: Mitochondrial membrane potential (JC-1 probe); details: 24 h
Experimental: In PLO/FN-coated 24-well microplates, cells were simultaneously incubated with 20 nM of annonacin and the selected concentrations of Nrf2-pathway activators, in glucose-reduced medium, over the course of 24 h. After that, the medium was removed and cells were washed once with warm HBSS, followed by incubation with 5 µM JC-1 solution in HBSS, for 20 min at 37 °C. For the positive control, the mitochondrial oxidative phosphorylation uncoupler, CCCP, was used at a concentration of 50 µM. After the incubation period, cells were washed with HBSS, and fresh HBSS was added to keep the cells viable during live-image acquisition. Image acquisition was done on a fluorescence microscope Leica-DFC9000GTC (Leica, Frankfurt, Germany). Environmental conditions were kept steady at 37 °C with a 5% CO2 atmosphere during the entire acquisition time. Ten to fifteen images from different fields of view, dispersed across triplicates, were acquired with 200 × magnification (20 × objective, 10 × intermediate magnification), using the same image acquisition parameters for all conditions. The fluorescence of JC-1 monomers was captured on the green channel (λ Ex/Em = 475/519 nm) and the fluorescence of JC-1 aggregates was capture on the red channel (λ Ex/Em = 555/594 nm). Quantification of FI (fluorescence intensities) of JC-1 monomeric and aggregated forms was done using the ImageJ software (http://rsb.info.nih.gov/ij/, ImageJ bundled with 64-bit Java 8). Briefly, TIFF exported images were submitted to background subtraction using the rolling ball method with a radius of 50 pixels. Channel-specific thresholds were applied to all images to define the ROI (region of interest) and FI were measured as integrated density. Data were reported as the ratio between JC-1 aggregates and monomers, obtained by dividing the FI of the JC-1 aggregated form by the FI of the monomeric form.

[3] = system: pSer-202 and pThr-205 tau; test: AT8 (pSer-202/Thr-205 tau) immunofluorescence; details: 48 h
Experimental: For immunostaining, cells were seeded in differentiation medium, on 24-well microplates containing PLO/FN-coated 13 mm Ø coverslips, and treated for 48 h as previously described. On the readout day, the medium was removed and cells were fixed, permeabilized and blocked as before. Primary antibody dilutions were made in 1.5% NHS in PBS (Supplementary Table S1) and incubated overnight at 4 °C. On the following day, the coverslips were washed three times with PBS and incubated with host-specific fluorescence secondary antibodies (Supplementary Table S1), for 2 h at RT, protected from light. After another three washes with PBS, cell nuclei were stained with 1:5,000 DAPI (4’,6-diamidino-2-phenylindole, Thermo Fisher Scientific) in PBS, for 15 min at RT. The coverslips were mounted in mowiol and left to dry for 24 h before imaging. Image acquisition for FI quantification was done with a 200 × magnification (20 × objective, 10 × intermediate magnification), or 400x (40 × objective, 10 × intermediate magnification) in the case of pSC-35 and AT8 immunostaining, on a fluorescence microscope Leica-DFC9000GTC (Leica). In the case of phospho-tau AT8, Z-stacks consisting of 18 plane images with a step size of 1 μm were acquired. The image acquisition parameters were identical for all conditions. Quantification of 8-OHdG (8-hydroxyguanosine) FI and tau species was performed using the ImageJ software. Ten-to-fifteen images per condition across triplicates, from different view fields, were used for this purpose. Briefly, TIFF exported images were submitted to background subtraction using the rolling ball method with a radius of 50 pixels. For 8-OHdG analysis, a channel-specific threshold was applied to all images to define the ROI and FI was measured and normalized to the cell number, determined by the DAPI channel. The average value of the different view fields per experimental condition was taken and reported as fold change compared to the control (DMSO-treated) condition. For the analysis of phospho-tau AT270 and pan-tau reactivity, channel specific thresholds were applied to all images. The DAPI channel was used to define nuclei from viable cells, by selecting particles with a size above 15 µm^2 and a circularity of 0.3–1.0. The obtained mask was submitted to “close” and “fill holes” processes to smooth the objects and fill in small holes, followed by nine “dilations” and one “watershed” to obtain a ROI covering exclusively the soma of viable cells. The obtained mask was combined with threshold images of phospho-tau AT270 and pan-tau in order to define the respective ROI of each tau species. These masks were used to quantify the number of somas expressing each of these tau species, as well as the respective FI. The number of AT270-positive somas was divided by the number of pan-tau-positive somas and expressed as a percentage. The AT270 FI was normalized to the pan-tau FI and the ratio presented as fold change relative to the control (DMSO-treated) condition. For quantification of pSC-35 and AT8 speckle number and FI, we used CellProfiler™ 4 (https://cellprofiler.org/, Broad Institute Inc., Cambridge, MA, USA) speckle counting pipeline. Twenty-to-thirty images per condition across triplicates were used for this purpose. ImageJ BIOP JACoP plugin was used for estimating co-localization of AT8 with DAPI-stained nuclei. Data were reported as fold change compared to the control (DMSO-treated) condition, or as Pearsonʹs coefficient values in case the of AT8 co-localization data.

[4] = protective concentration of compound + 20 nM annonacin
[5] = 20 nM annonacin alone, vs control
[6] = protective concentration of compound + 20 nM annonacin, compared to annonacin

| Compound | protective effects against annonacin toxicity in Nrf2-knockdown cells [1] | mitochondrial membrane potential (JC-1 aggregates/monomers ratio) [2, 4] | mitochondrial membrane potential (JC-1 aggregates/monomers ratio) ([2]; 20 nM annonacin alone, glucose-reduced medium) | Pearson´s coefficient between AT8 reactivity and DAPI-stained nuclei (r) ([3]; 20 nM annonacin alone) | AT8 fluorescence intensity [3, 5] | number of AT8 speckles per nucleus [3, 5] | Pearson´s coefficient between AT8 reactivity and DAPI-stained nuclei (r) [3, 4] | AT8 fluorescence intensity [3, 6] | number of AT8 speckles [3, 6] |
| --- | --- | --- | --- | --- | --- | --- | --- | --- | --- |
| Cn1c(Nc2nc3ccc(C(F)(F)F)cc3s2)nc2cc(C(=O)NCCOCCO)ccc21 [HPP-D] | slightly attenuated in Nrf2-knockdown cells | rescue the ΔψM from annonacin-induced depolarization | – | – | – | – | – | – | – |
| CCCCCCCCCCCC[C@@H](O)[C@H]1CC[C@H]([C@H](O)CCCC[C@H](O)CCCCC[C@@H](O)CC2=CC(C)OC2=O)O1 (stereo partly shown) [annonacin] | – | – | significant mitochondrial depolarization | 0.58 | statistically higher AT8 fluorescence intensity | non-significant propensity to increase the number of AT8 speckles per nucleus | – | – | – |
| O=C1[C@H](CC[C@H](O)c2ccc(F)cc2)[C@@H](c2ccc(O)cc2)N1c1ccc(F)cc1 [ezetimibe] | did not observe an abolishment of the neuroprotective effects | aggravated mitochondrial depolarization | – | – | – | – | 0.45 | significant reduction | significant reduction of the number of AT8 speckles |
| C=CC(C)(C)c1cc(/C=C/C(=O)c2ccc(O)cc2)c(OC)cc1O [licochalcone A] | slightly attenuated in Nrf2-knockdown cells | aggravated mitochondrial depolarization | – | – | – | – | 0.38 | significant reduction | significant reduction of the number of AT8 speckles |
